From US8173808B2, “Substituted naphthalenyl-pyrimidine compounds” (ArQule, Inc., priority 2009, dated 2012)

Columns and labels:
DLD-1 = experiment: MTS assay, DLD-1; type: cell-based; details: Homo sapiens, 72 hours, 1 Percent FBS
Procedure: (§1) Cells were maintained at 37° C., 5% CO2 in DMEM media supplemented with 1% fetal bovine serum, penicillin/streptomycin and fungizone (Invitrogen). Cells were seeded into 96-well tissue culture plates at 3000 per well and cultured at 37° C. for 18 hours. Test compounds were dissolved and diluted to 300× in DMSO then diluted 1:40 in DMEM. Cells were incubated with test compounds for 72 hours followed by incubation with tetrazolium compound (3-(4,5-dimethylthiazol-2-yl)-5-(3-carboxymethoxyphenyl)-2-(4-sulfophenyl)-2H-tetrazolium, inner salt; MTS) and the electron coupling reagent, phenazine methosulfate (PMS) for 4 hours. […] The ability of compounds to inhibit cell growth in this assay is correlated with the reduction of dehydrogenase enzyme activity found in metabolically active cells. The measurement of the absorbance of the formazan was assessed using a Victor (Perkin Elmer) microplate reader at 492 nm. The calculated IC50 value is the concentration of the test compound that causes a 50% decrease in the absorbance.

MDA-MB-231 = experiment: MTS assay, MDA-MB-231; type: cell-based; details: Homo sapiens, 72 hours, 1 Percent FBS
Procedure: as §1

SMILES | inhibition at 10 µM (DLD-1) [%] | inhibition at 10 µM (MDA-MB-231) [%]
CNc1nccc(-c2cc(NC3CCN(c4nc(C)cc(C(=O)OC)n4)CC3)c3cc(OC)ccc3c2)n1 [Compound 163, methyl 2-[4-({7-methoxy-3-[2-(methylamino)pyrimidin-4-yl]-1-naphthyl}amino)piperidin-1-yl]-6-methylpyrimidine-4-carboxylate] | 97 | 98
COc1ccc2cc(-c3ccnc(NCCc4ccccc4OC)n3)cc(NC(=O)OC(C)(C)C)c2c1 [Compound 92, tert-butyl [7-methoxy-3-(2-{[2-(2-methoxyphenyl)ethyl]amino}pyrimidin-4-yl)-1-naphthyl]carbamate] | 98 | 99
CNc1nccc(-c2cc(NC(=O)CN3CCN(CCn4cccc4)CC3)c3cc(OC)ccc3c2)n1 [Compound 82, N-{7-methoxy-3-[2-(methylamino)pyrimidin-4-yl]-1-naphthyl}-2-{4-[2-(1H-pyrrol-1-yl)ethyl]piperazin-1-yl}acetamide] | 96 | 80
COc1ccc2cc(-c3ccnc(NCCc4ccc(OC)c(OC)c4)n3)cc(N3CCOCC3)c2c1 [Compound 18, N-[2-(3,4-dimethoxyphenyl)ethyl]-4-(6-methoxy-4-morpholin-4-yl-2-naphthyl)pyrimidin-2-amine] | 88 | 31
COc1ccc2cc(-c3ccnc(NC4CCN(C)CC4)n3)cc(N3CCNCC3)c2c1 [Compound 116, 4-(6-methoxy-4-piperazin-1-yl-2-naphthyl)-N-(1-methylpiperidin-4-yl)pyrimidin-2-amine] | 97 | 97
COc1ccc2cc(-c3ccnc(NCC(C)(C)CN(C)C)n3)cc(NC(=O)OC(C)(C)C)c2c1 [Compound 105, tert-butyl [3-(2-{[3-(dimethylamino)-2,2-dimethylpropyl]amino}pyrimidin-4-yl)-7-methoxy-1-naphthyl]carbamate] | 84 | 89
COc1ccc(CCNc2nccc(-c3cc(NC(=O)OC(C)(C)C)c4cc(OC)ccc4c3)n2)cc1 [Compound 88, tert-butyl [7-methoxy-3-(2-{[2-(4-methoxyphenyl)ethyl]amino}pyrimidin-4-yl)-1-naphthyl]carbamate] | 90 | 64
CCCCN(C)CCNCC(=O)Nc1cc(-c2ccnc(NC)n2)cc2ccc(OC)cc12 [Compound 51, N~2~-{2-[butyl(methyl)amino]ethyl}-N-{7-methoxy-3-[2-(methylamino)pyrimidin-4-yl]-1-naphthyl}glycinamide] | 98 | 93
COc1ccc2cc(-c3ccnc(NCc4cncn4C)n3)cc(NC(=O)OC(C)(C)C)c2c1 [Compound 93, tert-butyl [7-methoxy-3-(2-{[(1-methyl-1H-imidazol-5-yl)methyl]amino}pyrimidin-4-yl)-1-naphthyl]carbamate] | 96 | 72
COc1ccc2cc(-c3ccnc(NC4CC(C)(C)N(C)C(C)(C)C4)n3)cc(N3CCNCC3)c2c1 [Compound 118, 4-(6-methoxy-4-piperazin-1-yl-2-naphthyl)-N-(l,2,2,6,6-pentamethylpiperidin-4-yl)pyrimidin-2-amine] | 96 | 96
CNc1nccc(-c2cc(NC3CCN(c4ncnc5c(C)csc45)CC3)c3cc(OC)ccc3c2)n1 [Compound 164, 4-(6-methoxy-4-{[l-(7-methylthieno[3,2-d]pyrimidin-4-yl)piperidin-4-yl]amino}-2-naphthyl)-N-methylpyrimidin-2-amine] | 98 | 90
CNc1nccc(-c2cc(NC(=O)CN3CCC(N4CCN(C)CC4)CC3)c3cc(OC)ccc3c2)n1 [Compound 45, N-{7-methoxy-3-[2-(methylamino)pyrimidin-4-yl]-1-naphthyl}-2-[4-(4-methylpiperazin-1-yl)piperidin-1-yl]acetamide] | 98 | 99
COc1ccc2cc(-c3ccnc(NCCN(C)C)n3)cc(NC(=O)OC(C)(C)C)c2c1 [Compound 86, tert-butyl [3-(2-{[2-(dimethylamino)ethyl]amino}pyrimidin-4-yl)-7-methoxy-1-naphthyl]carbamate] | 31 | 67
COc1ccc2cc(-c3ccnc(NC4CCN(C)CC4)n3)cc(N3CCOCC3)c2c1 [Compound 7, 4-(6-methoxy-4-morpholin-4-yl-2-naphthyl)-N-(1-methylpiperidin-4-yl)pyrimidin-2-amine] | 68 | 62
CCN1CCCC(Nc2nccc(-c3cc(NC(=O)OC(C)(C)C)c4cc(OC)ccc4c3)n2)C1 (stereo not drawn) [Compound 91, tert-butyl (3-{2-[(1-ethylpiperidin-3-yl)amino]pyrimidin-4-yl}-7-methoxy-1-naphthyl)carbamate] | 97 | 85
COc1ccc2cc(-c3ccnc(NCCN4CCCC4)n3)cc(N3CCNCC3)c2c1 [Compound 133, 4-(6-methoxy-4-piperazin-1-yl-2-naphthyl)-N-(2-pyrrolidin-1-ylethyl)pyrimidin-2-amine] | 97 | 98
COc1ccc(CNc2nccc(-c3cc(NC(=O)OC(C)(C)C)c4cc(OC)ccc4c3)n2)cc1 [Compound 104, tert-butyl (7-methoxy-3-{2-[(4-methoxybenzyl)amino]pyrimidin-4-yl}-1-naphthyl)carbamate] | 48 | 30
CNc1nccc(-c2cc(NC(=O)CN3CCN(c4nccc(C(F)(F)F)n4)CC3)c3cc(OC)ccc3c2)n1 [Compound 75, N-{7-methoxy-3-[2-(methylamino)pyrimidin-4-yl]-1-naphthyl}-2-{4-[4-(trifluoromethyl)pyrimidin-2-yl]piperazin-1-yl}acetamide] | 97 | 98
COc1cccc(CNc2nccc(-c3cc(NC(=O)OC(C)(C)C)c4cc(OC)ccc4c3)n2)c1 [Compound 99, tert-butyl (7-methoxy-3-{2-[(3-methoxybenzyl)amino]pyrimidin-4-yl}-1-naphthyl)carbamate] | 97 | 98
CCN1CCCC(Nc2nccc(-c3cc(N4CCNCC4)c4cc(OC)ccc4c3)n2)C1 (stereo not drawn) [Compound 131, N-(1-ethylpiperidin-3-yl)-4-(6-methoxy-4-piperazin-1-yl-2-naphthyl)pyrimidin-2-amine] | 92 | 97
CNc1nccc(-c2cc(NC(=O)CNc3cccnc3)c3cc(OC)ccc3c2)n1 [Compound 54, N-{7-methoxy-3-[2-(methylamino)pyrimidin-4-yl]-1-naphthyl}-N~2~-pyridin-3-ylglycinamide] | 75 | 65
CNc1nccc(-c2cc(NC(=O)CNCCN3CCOCC3)c3cc(OC)ccc3c2)n1 [Compound 78, N-{7-methoxy-3-[2-(methylamino)pyrimidin-4-yl]-1-naphthyl}-N~2~-(2-morpholin-4-ylethyl)glycinamide] | 55 | 48
COc1ccc2cc(-c3ccnc(NC4CCN(Cc5ccccc5)CC4)n3)cc(N3CCNCC3)c2c1 [Compound 117, N-(1-benzylpiperidin-4-yl)-4-(6-methoxy-4-piperazin-1-yl-2-naphthyl)pyrimidin-2-amine] | 97 | 97
CCN(CC)CCCCNCC(=O)Nc1cc(-c2ccnc(NC)n2)cc2ccc(OC)cc12 [Compound 73, N~2~-[4-(diethylamino)butyl]-N-{7-methoxy-3-[2-(methylamino)pyrimidin-4-yl]-1-naphthyl}glycinamide] | 98 | 98
CNc1nccc(-c2cc(NC(=O)CN3CCN(CCOC)CC3)c3cc(OC)ccc3c2)n1 [Compound 59, 2-[4-(2-methoxyethyl)piperazin-1-yl]-N-{7-methoxy-3-[2-(methylamino)pyrimidin-4-yl]-1-naphthyl}acetamide] | 97 | 98
COc1ccc2cc(-c3ccnc(NCCc4ccccc4OC)n3)cc(N3CCNCC3)c2c1 [Compound 124, N-[2-(2-methoxyphenyl)ethyl]-4-(6-methoxy-4-piperazin-1-yl-2-naphthyl)pyrimidin-2-amine] | 97 | 98
CNc1nccc(-c2cc(NC(=O)CN3CCN(c4ncncn4)CC3)c3cc(OC)ccc3c2)n1 [Compound 40, N-{7-methoxy-3-[2-(methylamino)pyrimidin-4-yl]-1-naphthyl}-2-[4-(1,3,5-triazin-2-yl)piperazin-1-yl]acetamide] | 54 | 40
COc1ccc2cc(-c3ccnc(NC4CCN(Cc5ccccc5)CC4)n3)cc(N3CCOCC3)c2c1 [Compound 24, N-(1-benzylpiperidin-4-yl)-4-(6-methoxy-4-morpholin-4-yl-2-naphthyl)pyrimidin-2-amine] | 97 | 95
CNc1nccc(-c2cc(NC3CCN(c4cc(C(=N)N)cc(Cl)n4)CC3)c3cc(OC)ccc3c2)n1 [Compound 158, 2-chloro-6-[4-({7-methoxy-3-[2-(methylamino)pyrimidin-4-yl]-1-naphthyl}amino)piperidin-1-yl]pyridine-4-carboximidamide] | 98 | 98
COc1ccc2cc(-c3ccnc(NCCc4cccnc4)n3)cc(N3CCOCC3)c2c1 [Compound 21, 4-(6-methoxy-4-morpholin-4-yl-2-naphthyl)-N-(2-pyridin-3-ylethyl)pyrimidin-2-amine] | 97 | 99
